Laboratory results as given in patent publication US20180311124A1, “CLIMBAZOLE MICROCAPSULE AND HAIR CARE COMPOSITION COMPRISING SURFACTANT AND CLIMBAZOLE” (priority 2015, published 2018).
Read-outs that look alike come from different tables or passages of the source. One block for each compound: values may come before it.

Assays:
[1] = Screen of perfume components, perfume mixtures and oils for ability to solubilise climbazole
Excerpt: A number of perfume components, perfume mixtures and oils considered to be safe to use on scalp were screened to evaluate their ability to solubilise climbazole. Because emulsion polymerisation also encapsulates the solvent an efficient solvent is needed to get a high loading of climbazole into a microcapsule.

[2] = manufacturer's published literature; cited from earlier work
M. Furfur = experiment: ZOI test comparing with PS latex (Example 5); type: cell-based, Malassezia furfur; details: ruptured by rubbing; 1 g shampoo of table 3 diluted with 3.9 g water and 0.1 g model sebum
Experimental: Zone of Inhibition (ZOI) Method • 1. L&N agar plates were appropriately labelled. • 2. 0.25 ml or 1 ml of quarter strength inoculum was pipetted onto the surface of each plate. • 3. The inoculum was spread evenly over the whole surface of the plates using a sterile spreader. • 4. Filter paper discs were added, in triplicate to the control plate and plates labelled 1 to 5 unruptured and left for 30 minutes in order to soak up any moisture from the agar. • 5. 15 μl of each (diluted, unruptured) formulation were pipetted onto each of the 3 discs in the appropriate agar plate. The liquid was allowed to soak into the disc. • 6. An additional disc was placed over the original discs in the control and 1 to 5 unruptured plates and the liquid allowed to soak into the additional discs. • 7. The discs from the previously ruptured samples were added in triplicate to separate Leeming and Notman agar plates and allowed to absorb moisture from the plates. • 8. […] Any zone of inhibition observed was measured and recorded.
The efficacy of climbazole microcapsules on the growth of M. Furfur measured using Zone of Inhibition (ZOI) when the microcapsules had been ruptured by simple rubbing to simulate hair washing was tested both for the solvent containing core shell microcapsules according to the invention and the latex particles according to the prior art. […]

Compound: CCOC(=O)C=Cc1ccccc1 [Ethyl Cinnamate]
ability to solubilise climbazole ([1]; solvent screened at the solvent:climbazole ratios tested): failed to solubilise it at any ratio tested

ratio of solvent to climbazole [1]: 5:1
Compound: CC(=O)OCc1ccccc1 [Benzyl Acetate]

Compound: CC(O)CO (stereo not drawn) [propylene glycol]
ability to solubilise climbazole [1]: failed to solubilise it at any ratio tested

Compound: Coconut oil
ability to solubilise climbazole [1]: failed to solubilise it at any ratio tested

Compound: CC(C)(C)C(=O)C(Oc1ccc(Cl)cc1)n1ccnc1 (racemic) [climbazole, (RS)-1-(4-Chlorophenoxy)-1-imidazol-1-yl-3,3-dimethylbutan-2-one]
solubility [2]: soluble in alcohol, glycols, surfactants and certain perfume oils | Ruptured mean ZOI (mm) (M. Furfur): 1.00^1 mm
